Results from PubChem BioAssay (NCI).
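Dose response: 5 concentrations. Exposure: 48 h. Format: 96-well plates. Endpoint: linear interpolation; highest concentration if not reached. At the TGI there is no net growth.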

How the values were obtained:
Assay in all cases: NCI anticancer screen, dose series, 48 h
[1] = system: SF-268 CNS
[2] = system: K-562 leukemia
[3] = system: SK-MEL-28 melanoma
[4] = system: OVCAR-4 ovarian
[5] = system: MDA-MB-231 breast
[6] = system: UACC-62 melanoma
[7] = system: HOP-62 NSCLC
[8] = system: HCT-15 colon
[9] = system: SW-620 colon
[10] = system: EKVX NSCLC
[11] = system: U251 CNS
[12] = system: OVCAR-3 ovarian
[13] = system: MDA-MB-435
[14] = system: HCT-116 colon
[15] = system: TK-10 renal
[16] = system: HOP-92 NSCLC
[17] = system: RXF 393 renal
[18] = system: NCI-H460 lung
[19] = system: CAKI-1 renal
[20] = system: UACC-257 melanoma
[21] = system: SK-MEL-2 melanoma
[22] = system: NCI-H23 lung
[23] = system: CCRF-CEM leukemia
[24] = system: SK-MEL-5 melanoma
[25] = system: SNB-75 CNS
[26] = system: HCC-2998 colon
[27] = system: IGROV1 ovarian
[28] = system: ACHN renal
[29] = system: LOX IMVI melanoma
[30] = system: MCF7 breast
[31] = system: DU-145 prostate
[32] = system: UO-31 renal
[33] = system: BT-549 breast
[34] = system: SK-OV-3 ovarian
[35] = system: SNB-19 CNS
[36] = system: PC-3 prostate
[37] = system: MOLT-4 leukemia
[38] = system: HS 578T breast
[39] = system: MALME-3M melanoma
[40] = system: NCI/ADR-RES ovarian
[41] = system: 786-0 renal
[42] = system: M14 melanoma
[43] = system: NCI-H522 lung
[44] = system: A498 renal
[45] = system: OVCAR-5 ovarian
[46] = system: MDA-N
[47] = system: OVCAR-8 ovarian
[48] = system: HL-60(TB) leukemia
[49] = system: A549 NSCLC
[50] = system: RPMI-8226 leukemia
[51] = system: COLO 205 colon
[52] = system: SF-295 CNS
[53] = system: T-47D breast
[54] = system: HT29 colon
[55] = system: KM12 colon
[56] = system: SN12C renal
[57] = system: SR leukemia
[58] = system: SF-539 CNS
[59] = system: NCI-H226 lung

## O=C1/C(=C/c2cccc([N+](=O)[O-])c2)N=C(c2ccccc2)N1c1ccc2c(c1)Sc1cc(N3C(=O)/C(=C/c4cccc([N+](=O)[O-])c4)N=C3c3ccccc3)ccc1N2
[1]
  TGI: 40.5 µM
[2]
  TGI: 96.7 µM
[3]
  TGI: > 100 µM
[4]
  TGI: 34.5 µM
[5]
  TGI: 89.8 µM
[6]
  TGI: 31.7 µM
[7]
  TGI: 49.5 µM
[8]
  TGI: > 100 µM
[9]
  TGI: > 100 µM
[10]
  TGI: 62.9 µM
[11]
  TGI: 66.5 µM
[12]
  TGI: 28.4 µM
[13]
  TGI: 34.5 µM
[14]
  TGI: > 100 µM
[15]
  TGI: 39.4 µM
[16]
  TGI: 85.2 µM
[17]
  TGI: 62.2 µM
[18]
  TGI: > 100 µM
[19]
  TGI: 54 µM
[20]
  TGI: 37.5 µM
[21]
  TGI: 39.9 µM
[22]
  TGI: 92.4 µM
[23]
  TGI: 55.3 µM
[24]
  TGI: 31 µM
[25]
  TGI: 34.3 µM
[26]
  TGI: > 100 µM
[27]
  TGI: 45.3 µM
[28]
  TGI: > 100 µM
[29]
  TGI: 74.1 µM
[30]
  TGI: 37.9 µM
[31]
  TGI: > 100 µM
[32]
  TGI: > 100 µM
[33]
  TGI: 52.4 µM
[34]
  TGI: 30.9 µM
[35]
  TGI: 40.2 µM
[36]
  TGI: 52.8 µM
[37]
  TGI: > 100 µM
[38]
  TGI: > 100 µM
[39]
  TGI: 41.1 µM
[40]
  TGI: > 100 µM
[41]
  TGI: 46.3 µM
[42]
  TGI: 87.9 µM
[43]
  TGI: 41.9 µM
[44]
  TGI: 55.1 µM
[45]
  TGI: 35.8 µM
[46]
  TGI: 35 µM
[47]
  TGI: 78.8 µM
[48]
  TGI: 64.6 µM
[49]
  TGI: > 100 µM
[50]
  TGI: > 100 µM
[51]
  TGI: > 100 µM
[52]
  TGI: 32.6 µM
[53]
  TGI: 80 µM
[54]
  TGI: > 100 µM
[55]
  TGI: > 100 µM

## Clc1ccc(-c2cc(-c3nc4ccccc4[nH]3)no2)cc1
[1]
  TGI: 45.9 µM
[2]
  TGI: 50.2 µM
[3]
  TGI: 40.5 µM
[4]
  TGI: 51.4 µM
[5]
  TGI: 35.5 µM
[6]
  TGI: 28.3 µM
[56]
  TGI: 35 µM
[7]
  TGI: 38.2 µM
[8]
  TGI: 45 µM
[9]
  TGI: 46.5 µM
[10]
  TGI: 34 µM
[12]
  TGI: 35.7 µM
[13]
  TGI: 31.6 µM
[14]
  TGI: 30.6 µM
[15]
  TGI: 40 µM
[16]
  TGI: 66.7 µM
[18]
  TGI: 32.6 µM
[19]
  TGI: 34.7 µM
[20]
  TGI: 36.4 µM
[21]
  TGI: 34.7 µM
[22]
  TGI: 42.3 µM
[23]
  TGI: 57.4 µM
[24]
  TGI: 34.7 µM
[25]
  TGI: 44.5 µM
[26]
  TGI: 33.5 µM
[27]
  TGI: 62.1 µM
[28]
  TGI: 36.9 µM
[29]
  TGI: 35.5 µM
[30]
  TGI: 31 µM
[31]
  TGI: 24.6 µM
[32]
  TGI: 34.7 µM
[33]
  TGI: 45.5 µM
[34]
  TGI: 35.8 µM
[35]
  TGI: 36 µM
[36]
  TGI: 48.4 µM
[37]
  TGI: 47.9 µM
[38]
  TGI: 79.7 µM
[39]
  TGI: 37.5 µM
[40]
  TGI: 73.5 µM
[41]
  TGI: 59 µM
[42]
  TGI: 34.6 µM
[43]
  TGI: 42.8 µM
[44]
  TGI: 47.5 µM
[57]
  TGI: 59.7 µM
[45]
  TGI: 40.8 µM
[46]
  TGI: 33.8 µM
[58]
  TGI: 74.3 µM
[47]
  TGI: 67.4 µM
[48]
  TGI: 37.2 µM
[49]
  TGI: 36 µM
[59]
  TGI: 79.9 µM
[50]
  TGI: 73.1 µM
[51]
  TGI: 41.8 µM
[52]
  TGI: 33 µM
[53]
  TGI: 37.7 µM
[54]
  TGI: 35.3 µM
[55]
  TGI: 40 µM

## O=C1c2cccnc2-c2nccc3ccnc1c23
[1]
  TGI: 6.58 µM
[2]
  TGI: 0.666 µM
[3]
  TGI: 2.58 µM
[4]
  TGI: 5.46 µM
[5]
  TGI: 6.52 µM
[6]
  TGI: 1.88 µM
[56]
  TGI: 2.36 µM
[7]
  TGI: 7.95 µM
[8]
  TGI: 1.8 µM
[9]
  TGI: 1.78 µM
[10]
  TGI: 3.75 µM
[11]
  TGI: 3.49 µM
[12]
  TGI: 1.49 µM
[13]
  TGI: 0.38 µM
[14]
  TGI: 0.0784 µM
[16]
  TGI: 2.36 µM
[17]
  TGI: 2.52 µM
[18]
  TGI: 12.8 µM
[19]
  TGI: 1.32 µM
[20]
  TGI: 2.27 µM
[21]
  TGI: 4.64 µM
[22]
  TGI: 2.11 µM
[23]
  TGI: 0.156 µM
[24]
  TGI: 1.84 µM
[25]
  TGI: 5.92 µM
[26]
  TGI: 3.41 µM
[27]
  TGI: 2.12 µM
[28]
  TGI: 1.46 µM
[29]
  TGI: 2.22 µM
[30]
  TGI: 1.7 µM
[31]
  TGI: 2.65 µM
[32]
  TGI: 3.16 µM
[33]
  TGI: 2.78 µM
[34]
  TGI: 2.9 µM
[35]
  TGI: 10.9 µM
[36]
  TGI: 3.45 µM
[37]
  TGI: 0.756 µM
[38]
  TGI: > 28.3 µM
[39]
  TGI: 3.28 µM
[41]
  TGI: 2.04 µM
[42]
  TGI: 2.43 µM
[43]
  TGI: 0.666 µM
[44]
  TGI: 13 µM
[45]
  TGI: 4.2 µM
[46]
  TGI: 0.465 µM
[58]
  TGI: 4.81 µM
[47]
  TGI: 2.17 µM
[48]
  TGI: 0.185 µM
[49]
  TGI: 6.82 µM
[59]
  TGI: 2.98 µM
[50]
  TGI: 0.894 µM
[51]
  TGI: 1.12 µM
[52]
  TGI: 2.78 µM
[53]
  TGI: 1.77 µM
[54]
  TGI: 2.09 µM
[55]
  TGI: 2.66 µM
